In the experiment the target is protein kinase. Description: HTS ATP-utilizing enzyme assay, off-chip mobility-shift format (Caliper HTS 250). In kind it is biochemical, human. The source says:
The following procedures describe the reagent and plate preparation for a HTS of an ATP-utilizing enzyme, such as a protein kinase, run in an off-chip mobility-shift assay format. The following provides an HTS protocol for running a protein kinase HTS screen on a Caliper HTS 250 microfluidics system. The following parameters are dependent on the protein kinase used and can be determined by one skilled in the art as part of a typical assay development process. For example, the peptide substrate used can be identified from the current literature, by screening a peptide library of potential protein kinase substrates, or by other applicable means accepted in the field.
The following table provides typical screen assay parameters appropriate for a Caliper HTS 250 microfluidics system.
The reagents and buffers listed in the following table are generally applicable for developing and running an HTS screen on a human protein kinase using the Caliper HTS 250 system.
The following reagents were prepared using the previously described buffers.
A 2× Master Buffer solution was prepared by combining 200 mL of 1 M HEPES, pH 7.5, 2 mL of 10% Triton X-100, 20 mL of 10% BSA, and 778 mL of H2O.
Assays to determine the kinase inhibitory activity of chemical entities of the present disclosure were performed using a Caliper HTS 250 microfluidics device, Greiner U-bottom assay plates, a Multidrop for transfer of reagents, and Biomek FX (AMNCBM03) software. Initially, 2.4 μL of a 1 mM solution of a test compound in 100% DMSO was added to a well of the Greiner U-bottom plate. A single Greiner U-bottom plate having 24×16 wells could include multiple test compounds. […] Using the Biomek FX, 10 μL of 0.5 M EDTA was added by the span-8 to wells, indicated as 100% Control and 2.4 μL of 100% DMSO was added by the span-8 to wells, indicated as 0% Control. […] The total reaction volume in each well was 25 μL, and the concentration of the test compound was 10 μM. The assay plate was incubated for 2.5 hrs at 20° C. to 22° C. […] The inhibition of the ATP-utilizing enzyme, such as a particular protein kinase, was determined by measuring the ratio of the peptide substrate to phosphorylated product for each well of the assay plate using the Caliper HTS 250 system.
The use of three-sigma statistical limits represents a conservative method for declaring potential hits among targets. The three-sigma activity, as well as the mean population activity, can be different for each target enzyme.

[1] abbreviates: kinase(s) for which the compound exhibits protein kinase inhibitory activity, test compound 10 μM, active = greater than three-sigma from the mean activity of inactive compounds.

“Also recorded” adds a separate entry of the source. Read-outs that look alike come from different tables or passages of the source.

`O=C(CSc1nnc(-c2ccc(O)cc2)n1Cc1ccco1)N1CCc2ccccc2C1`: the Kinase entry under setting [1] is “GSK3-β and GSK3-α and SRC”. On to `Cc1nnc(SCC(=O)N2CCCc3ccccc32)n1-c1ccccc1`, for which the Kinase result under setting [1] is reported as “c-TAK1”. Consider `COc1ccc(NCc2nnc(SCC(=O)Nc3ccccc3C(=O)O)n2-c2ccc(OC)cc2)cc1`, for which, under setting [1], the Kinase result is “FYN”.

For `CCc1nnc(NC(=O)CSc2nnc(-c3ccc(O)cc3)n2-c2cccc(Cl)c2)s1`, the Kinase entry under setting [1] is “GSK3-β; also recorded: GSK3-α”. In the case of `NC(=O)CSc1nnc(-c2ccc(O)cc2)n1-c1cccc(Cl)c1`, the Kinase entry under setting [1] is on record as “GSK3-β; also recorded: GSK3-α”. As to `NC(=O)CSc1nnc(-c2cc3ccccc3cc2O)n1Cc1ccco1`, the Kinase entry under setting [1] was “SRC”.

On to `O=C(CSc1nnc(-c2cccnc2)n1Cc1ccco1)Nc1nccs1`, for which the Kinase result under setting [1] was “GSK3-α; also recorded: GSK3-β; also recorded: CDK2-cyclinE”. Regarding `O=C(CSc1nnc(-c2ccncc2)n1Cc1ccco1)Nc1cccc(I)c1`, under setting [1], the Kinase entry is “GSK3-β and AKT3 and SRC”. For the molecule `CC1CCCCC1NC(=O)CSc1nnc(-c2ccccc2)n1Cc1ccccc1` (centres unmarked), the Kinase entry under setting [1] is listed as “AKT1”. On to `CCn1c(SCC(=O)N2CCN(c3ccc(OC)cc3)CC2)nnc1-c1ccc(O)cc1`, for which the Kinase entry under setting [1] was “SYK”. The same measure, in the same setting: the result for `COc1cc(-c2nnc(SCC(=O)Nc3cc([N+](=O)[O-])ccc3C)n2C)cc(OC)c1OC` reads “MAPKAPK-2”; that for `Cc1cccc(-c2nnc(SCC(=O)Nc3cccc(C(F)(F)F)c3)n2C)c1`, “CDK2-cyclinE”. For `COc1ccccc1-c1nnc(SCC(=O)Nc2ccccc2)n1C`, the Kinase entry under setting [1] was “AURORA-A”.

For the molecule `CCn1c(SCC(=O)Nc2nccs2)nnc1C1COc2ccccc2O1` (centres unmarked), the Kinase entry under setting [1] is given as “GSK3-α; also recorded: GSK3-β”. Turning to `COc1ccc(N2CCN(C(=O)CSc3nnc(-c4cc5ccccc5cc4O)n3C)CC2)cc1`, under setting [1], the Kinase result was “DAPK1”.

Regarding `COc1ccc(-n2c(SC(C)C(=O)Nc3ccc(C)cc3)nnc2-c2ccc(O)cc2)cc1` (centres unmarked), the Kinase entry under setting [1] is “GSK3-α”. Take `Cn1c(Cn2nnc3ccccc32)nnc1SCC(=O)Nc1cccc(O)c1`: the Kinase entry under setting [1] is “GSK3-α”. Same read-out and setting: to `CCn1c(CNc2ccccc2Cl)nnc1SC(C)C(=O)Nc1ccc([N+](=O)[O-])cc1` (centres unmarked) belongs “PDGFRR-α”. Take `O=C(CSc1nnc(CNc2cccc(Cl)c2)n1CCc1ccccc1)NC1CCCCC1`: the Kinase result under setting [1] is recorded as “CDK2-cyclinE”. Take `COc1ccccc1NC(=O)CSc1nnc(CNc2cccc(Cl)c2)n1-c1ccccc1`: the Kinase entry under setting [1] was “MSK1 and SGK1”.

For `CCc1ccccc1NC(=O)CSc1nnc(COc2ccc(Cl)cc2)n1C`, the Kinase entry under setting [1] is “PDGFRR-α”. Same read-out and setting: to `CCn1c(CNc2ccc(Cl)cc2)nnc1SCC(=O)Nc1ccccc1` belongs “c-TAK1”. On the same count and under the same terms, to `CCOc1ccc(NCc2nnc(SCC(=O)Nc3cc(C)on3)n2-c2ccccc2OC)cc1` belongs “PDGFRR-α and FYN”; to `CCOc1ccc(NCc2nnc(SC(C)C(=O)N(c3ccccc3)c3ccccc3)n2-c2ccc(OC)cc2)cc1` (centres unmarked), “FYN”. Regarding `Cn1c(CNc2ccc(F)cc2)nnc1SCC(=O)Nc1ccc([N+](=O)[O-])cc1`, the Kinase result under setting [1] was “CHEK2”. Regarding `COc1ccc(NCc2nnc(SCC(N)=O)n2C)cc1`, under setting [1], the Kinase entry was “PDGFRR-α and FYN”. On to `COc1ccc(NCc2nnc(SCC(=O)N3c4ccccc4Sc4ccccc43)n2-c2ccccc2)cc1`, for which, under setting [1], the Kinase entry was “PDGFRR-α”.

As for `COc1ccc(NCc2nnc(SCC(=O)N(c3ccccc3)c3ccccc3)n2-c2ccccc2)cc1`, under setting [1], the Kinase result is listed as “CHEK2; also recorded: PDGFRR-α; also recorded: FYN α”.

For the molecule `COc1ccc(NCc2nnc(SCC(=O)Nc3ncc(C)s3)n2-c2ccccc2)cc1`, the Kinase result under setting [1] is “PDGFRR-α and FYN”.

For `CCn1c(CSc2nc(C)cc(C)n2)nnc1SCC(=O)Nc1nccs1`, the Kinase entry under setting [1] was “GSK3-α”. Consider `Cc1cc(C)nc(SCc2nnc(SCC(=O)Nc3cccc(C(F)(F)F)c3)n2C)n1`, for which, under setting [1], the Kinase entry is “CDK1”. As to `CCn1c(CNc2ccc(C)cc2)nnc1SCC(=O)Nc1ccccc1OC`, the Kinase entry under setting [1] is “AURORA-A”. As for `CCn1c(CNc2ccc(C)cc2)nnc1SCC(=O)Nc1cccc(Cl)c1`, the Kinase result under setting [1] is reported as “CHEK2”. With `COc1cccc(NC(=O)CSc2nnc(CNc3ccc(C)cc3)n2C)c1`, the Kinase result under setting [1] is “CHEK2”.

In the case of `Cc1ccc(-n2c(Cc3ccccc3)nnc2SCC(=O)N2c3ccccc3Sc3ccccc32)cc1`, the Kinase entry under setting [1] is “CDK2-cyclinE”. As for `COc1ccccc1-n1c(SCC2COc3ccccc3O2)nnc1-c1cccc(Cl)c1` (centres unmarked), the “protein kinase against which the compound exhibits inhibitory activity (Table 3)” value is given as “MAPKAPK-3”. With `COc1ccccc1-n1c(SCCCCc2ccccc2)nnc1-c1cccc(N(C)C)c1`, the “protein kinase against which the compound exhibits inhibitory activity (Table 3)” value is listed as “MAPKAPK-3”.

Consider `COc1ccccc1-n1c(SCCCCc2ccccc2)nnc1-c1cc(C)n[nH]1`, for which the “protein kinase against which the compound exhibits inhibitory activity (Table 3)” value is listed as “MAPKAPK-3”. Consider `CCOc1ccc(NCc2nnc(S)n2-c2cccc(Cl)c2)cc1`, for which, under setting [1], the Kinase entry is given as “PDGFRR-α; also recorded: FLT-3”. As to `COc1ccccc1-n1c(SCCCCc2ccccc2)nnc1-c1ccc(N)nc1`, the “protein kinase against which the compound exhibits inhibitory activity (Table 3)” value is “MAPKAPK-3”. Turning to `COc1ccc(-n2c(S)nnc2CNc2ccc(Cl)cc2)cc1`, under setting [1], the Kinase result is “AURORA-A; also recorded: GSK3-α”.

With `CCOc1ccc(NCc2nnc(S)n2-c2ccc(OC)cc2)cc1`, under setting [1], the Kinase entry was “FLT-3; also recorded: PDGFRR-α; also recorded: AURORA-A”.

As for `COc1ccccc1-n1c(SCCC(=O)Nc2cc(NC(=O)c3ccco3)ccc2C)nnc1-c1ccccc1`, the “protein kinase against which the compound exhibits inhibitory activity (Table 3)” value is recorded as “MAPKAPK-3”. Consider `CCc1ccccc1NC(=O)CSc1nnc(COc2ccc(C)cc2)n1C`, for which the Kinase result under setting [1] was “PDGFRR-α”. `COc1cc(NC(=O)c2ccco2)c(OC)cc1NC(=O)CSc1nnc(-c2cccs2)n1C`: under setting [1], the Kinase entry was “PDGFRR-α”.

On to `CCOc1ccc(NCc2nnc(SCC(=O)Nc3cccc(C(C)=O)c3)n2-c2ccccc2)cc1`, for which the Kinase result under setting [1] is “FYN and PDGFRR-α and FLT-3”. In the case of `COc1ccc(NCc2nnc(SCC(=O)Nc3cccc(Cl)c3)n2-c2ccc(C)cc2)cc1`, under setting [1], the Kinase result was “PDGFRR-α and FYN and AURORA-A”. Turning to `COc1ccc(NCc2nnc(SCC(=O)Nc3cccc(Cl)c3)n2C)cc1`, the Kinase entry under setting [1] is “PDGFRR-α and AURORA-A and FYN”.

As for `CCn1c(SCC(=O)Nc2sc(C)c(C)c2C#N)nnc1-c1ccc(S(=O)(=O)N2CCOCC2)cc1`, the Kinase entry under setting [1] is given as “DAPK1”. As to `COCCn1c(SCC(=O)Nc2cccc(O)c2)nnc1-c1ccncc1`, the Kinase entry under setting [1] is “AKT1”. `COc1ccc(NCc2nnc(SCC(=O)Nc3cccc(O)c3)n2-c2ccccc2OC)cc1`: the Kinase result under setting [1] is on record as “CHEK2; also recorded: PDGFRR-α; also recorded: AURORA-A”.

`COc1cccc(NC(=O)CSc2nnc(COc3cccc(C)c3)n2C)c1`: the Kinase entry under setting [1] is on record as “GSK3-α; also recorded: CDK2-cyclinE”. As for `CCC(=O)Nc1ccc(NC(=O)CSc2nnc(-c3ccc(O)cc3)n2CC)cc1C`, under setting [1], the Kinase entry is “GSK3-α”.

Take `CC(=O)c1ccc(NC(=O)CSc2nnc(COc3ccccc3)n2-c2ccc(C)cc2)cc1`: the Kinase result under setting [1] is listed as “CHEK2”. In the case of `CCOc1ccc2nc(NC(=O)CSc3nnc(-c4ccncc4)n3Cc3ccco3)sc2c1`, under setting [1], the Kinase result is “GSK3-α and AKT1”. As for `COc1ccc(-c2nnc(SCC(=O)Nc3ccc4c(c3)OCO4)n2C)cc1`, the Kinase entry under setting [1] is “AKT1”. Turning to `Cn1c(SCC(=O)NCc2ccc3c(c2)OCO3)nnc1-c1cc2ccccc2cc1O`, the Kinase entry was “CSK”. For `CCn1c(CNc2ccc(C)cc2C)nnc1SCC(=O)Nc1ccccc1-c1ccccc1`, the Kinase result under setting [1] is “GSK3-α”.

For `Cc1cccc(C)c1NCc1nnc(SCC(=O)Nc2ccccc2-c2ccccc2)n1C`, under setting [1], the Kinase entry is recorded as “LCK”.

As for `O=C(CSc1nnc(Cn2nnc(-c3ccccc3)n2)n1-c1ccccc1)Nc1ccccc1`, the Kinase result under setting [1] was “GSK3-α”. Turning to `CCOC(=O)CN(C(=O)CSc1nnc(-c2ccccc2)n1-c1ccccc1OC)c1cccc([N+](=O)[O-])c1`, under setting [1], the Kinase entry is recorded as “GSK3-α”.

In the case of `C=CCn1c(SCC(=O)Nc2sc3c(c2C(=O)OCC)CCC3)nnc1-c1ccncc1`, under setting [1], the Kinase result is “CDK1 and AURORA-A”. Take `CCOC(=O)CN(C(=O)CSc1nnc(-c2ccc([N+](=O)[O-])cc2)n1C)c1ccccc1`: under setting [1], the Kinase result is “PDGFRR-α and FYN”. As for `CCOC(=O)CN(C(=O)CSc1nnc(CNc2ccc(F)cc2)n1-c1ccccc1)c1ccccc1`, the Kinase result under setting [1] is listed as “LCK”. In the case of `CCOC(=O)CN(C(=O)CSc1nnc(-c2ccncc2)n1-c1ccccc1)c1ccccc1`, the Kinase result under setting [1] was “PDGFRR-α”. In the case of `CCOC(=O)c1ccc(NC(=O)CSc2nnc(C)n2CCOC)cc1`, the Kinase result under setting [1] is given as “AKT1”. In the case of `COC(=O)c1ccccc1NC(=O)CSc1nnc(CNc2cccc(Cl)c2)n1C`, under setting [1], the Kinase result was “AURORA-A”. For `COC(=O)c1sc(NC(=O)CSc2nnc(-c3ccco3)n2C)nc1C`, the Kinase entry under setting [1] is recorded as “GSK3-β; also recorded: GSK3-α”.

The values above are taken from patent publication US20050288347A1, “Certain triazole-based compounds, compositions, and uses thereof” (priority 2004, published 2005).
